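In this assay, cells in 96-well plates receive the compound at five concentrations for 48 hours. Endpoints are linearly interpolated between the surrounding concentrations. GI50 marks 50% less growth. TGI: concentration producing complete growth inhibition.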
Columns and labels:
Test in all cases: NCI anticancer screen, dose series, 48 h
EKVX NSCLC = system: EKVX NSCLC
HS 578T breast = system: HS 578T breast
SK-MEL-28 melanoma = system: SK-MEL-28 melanoma
NCI-H522 lung = system: NCI-H522 lung
MALME-3M melanoma = system: MALME-3M melanoma
HL-60(TB) leukemia = system: HL-60(TB) leukemia
HT29 colon = system: HT29 colon
UACC-257 melanoma = system: UACC-257 melanoma
CCRF-CEM leukemia = system: CCRF-CEM leukemia
KM12 colon = system: KM12 colon
OVCAR-3 ovarian = system: OVCAR-3 ovarian
SK-OV-3 ovarian = system: SK-OV-3 ovarian
UO-31 renal = system: UO-31 renal
NCI/ADR-RES ovarian = system: NCI/ADR-RES ovarian
SF-539 CNS = system: SF-539 CNS
HOP-62 NSCLC = system: HOP-62 NSCLC
HOP-92 NSCLC = system: HOP-92 NSCLC
HCT-15 colon = system: HCT-15 colon
SF-268 CNS = system: SF-268 CNS
RPMI-8226 leukemia = system: RPMI-8226 leukemia
IGROV1 ovarian = system: IGROV1 ovarian
TK-10 renal = system: TK-10 renal
SN12C renal = system: SN12C renal
NCI-H226 lung = system: NCI-H226 lung
ACHN renal = system: ACHN renal
MDA-MB-231 breast = system: MDA-MB-231 breast
A498 renal = system: A498 renal
UACC-62 melanoma = system: UACC-62 melanoma
COLO 205 colon = system: COLO 205 colon
A549 NSCLC = system: A549 NSCLC
SNB-19 CNS = system: SNB-19 CNS
SNB-75 CNS = system: SNB-75 CNS
SK-MEL-2 melanoma = system: SK-MEL-2 melanoma
MDA-MB-435 = system: MDA-MB-435
CAKI-1 renal = system: CAKI-1 renal
RXF 393 renal = system: RXF 393 renal
SR leukemia = system: SR leukemia
NCI-H460 lung = system: NCI-H460 lung
HCC-2998 colon = system: HCC-2998 colon
NCI-H23 lung = system: NCI-H23 lung
U251 CNS = system: U251 CNS
786-0 renal = system: 786-0 renal
M14 melanoma = system: M14 melanoma
BT-549 breast = system: BT-549 breast
OVCAR-8 ovarian = system: OVCAR-8 ovarian
T-47D breast = system: T-47D breast
MOLT-4 leukemia = system: MOLT-4 leukemia
OVCAR-5 ovarian = system: OVCAR-5 ovarian
MCF7 breast = system: MCF7 breast
SF-295 CNS = system: SF-295 CNS
OVCAR-4 ovarian = system: OVCAR-4 ovarian
PC-3 prostate = system: PC-3 prostate
SW-620 colon = system: SW-620 colon
SK-MEL-5 melanoma = system: SK-MEL-5 melanoma
K-562 leukemia = system: K-562 leukemia
LOX IMVI melanoma = system: LOX IMVI melanoma
DU-145 prostate = system: DU-145 prostate
HCT-116 colon = system: HCT-116 colon

O=C(/C=C/c1cc2ccccc2[nH]c1=O)c1ccc(Cl)cc1
GI50 (EKVX NSCLC): 28.5 µM | TGI (EKVX NSCLC): > 100 µM | GI50 (HS 578T breast): > 48 µM | TGI (HS 578T breast): > 100 µM | GI50 (SK-MEL-28 melanoma): > 56.1 µM | TGI (SK-MEL-28 melanoma): > 89.8 µM | GI50 (NCI-H522 lung): 15.7 µM | TGI (NCI-H522 lung): 32.1 µM | GI50 (MALME-3M melanoma): 37.2 µM | TGI (MALME-3M melanoma): > 70.7 µM | TGI (HL-60(TB) leukemia): > 100 µM | GI50 (HT29 colon): 21 µM | TGI (HT29 colon): > 60.8 µM | GI50 (UACC-257 melanoma): 33.5 µM | TGI (UACC-257 melanoma): > 77.7 µM | GI50 (CCRF-CEM leukemia): 21.6 µM | TGI (CCRF-CEM leukemia): > 100 µM | GI50 (KM12 colon): 22.3 µM | TGI (KM12 colon): > 54.6 µM | GI50 (OVCAR-3 ovarian): 27.3 µM | TGI (OVCAR-3 ovarian): > 67.6 µM | GI50 (SK-OV-3 ovarian): 55.1 µM | TGI (SK-OV-3 ovarian): > 100 µM | GI50 (UO-31 renal): > 23 µM | TGI (UO-31 renal): > 100 µM | GI50 (NCI/ADR-RES ovarian): 21.9 µM | TGI (NCI/ADR-RES ovarian): 56.2 µM | GI50 (SF-539 CNS): 16.9 µM | TGI (SF-539 CNS): 39.3 µM | GI50 (HOP-62 NSCLC): 29.6 µM | TGI (HOP-62 NSCLC): > 76.2 µM | GI50 (HOP-92 NSCLC): 21.6 µM | TGI (HOP-92 NSCLC): 76.8 µM | GI50 (HCT-15 colon): 20.2 µM | TGI (HCT-15 colon): > 58.7 µM | GI50 (SF-268 CNS): 28 µM | TGI (SF-268 CNS): > 85.8 µM | GI50 (RPMI-8226 leukemia): 13.8 µM | TGI (RPMI-8226 leukemia): 50.1 µM | GI50 (IGROV1 ovarian): 23.3 µM | TGI (IGROV1 ovarian): > 52.8 µM | GI50 (TK-10 renal): 26.4 µM | TGI (TK-10 renal): > 59.3 µM | GI50 (SN12C renal): 30.8 µM | TGI (SN12C renal): > 100 µM | GI50 (NCI-H226 lung): 41 µM | TGI (NCI-H226 lung): > 73 µM | GI50 (ACHN renal): 33 µM | TGI (ACHN renal): > 64.9 µM | GI50 (MDA-MB-231 breast): 25.5 µM | TGI (MDA-MB-231 breast): 61.3 µM | GI50 (A498 renal): > 56.3 µM | TGI (A498 renal): > 100 µM | GI50 (UACC-62 melanoma): 26.4 µM | TGI (UACC-62 melanoma): > 81.6 µM | GI50 (COLO 205 colon): 37.4 µM | TGI (COLO 205 colon): > 80 µM | GI50 (A549 NSCLC): 30.7 µM | TGI (A549 NSCLC): > 100 µM | GI50 (SNB-19 CNS): 28.2 µM | TGI (SNB-19 CNS): > 100 µM | GI50 (SNB-75 CNS): 22.4 µM | TGI (SNB-75 CNS): 61.5 µM | GI50 (SK-MEL-2 melanoma): 30.1 µM | TGI (SK-MEL-2 melanoma): > 63.6 µM | GI50 (MDA-MB-435): 18.8 µM | TGI (MDA-MB-435): > 50.8 µM | GI50 (CAKI-1 renal): 16.8 µM | TGI (CAKI-1 renal): > 32.1 µM | GI50 (RXF 393 renal): 22.9 µM | TGI (RXF 393 renal): > 60.2 µM | GI50 (SR leukemia): 15.6 µM | TGI (SR leukemia): > 57.6 µM | GI50 (NCI-H460 lung): 26.2 µM | TGI (NCI-H460 lung): > 57.3 µM | GI50 (HCC-2998 colon): 25.1 µM | TGI (HCC-2998 colon): 56.6 µM | GI50 (NCI-H23 lung): 27.3 µM | TGI (NCI-H23 lung): 97.7 µM | GI50 (U251 CNS): 19.1 µM | TGI (U251 CNS): > 48.5 µM | GI50 (786-0 renal): > 37.2 µM | TGI (786-0 renal): > 100 µM | GI50 (M14 melanoma): 28.7 µM | TGI (M14 melanoma): > 73.5 µM | GI50 (BT-549 breast): 24.9 µM | TGI (BT-549 breast): > 55.6 µM | GI50 (OVCAR-8 ovarian): 25.3 µM | TGI (OVCAR-8 ovarian): > 59.6 µM | GI50 (T-47D breast): 27.3 µM | TGI (T-47D breast): > 100 µM | GI50 (MOLT-4 leukemia): 22.8 µM | TGI (MOLT-4 leukemia): > 100 µM | GI50 (OVCAR-5 ovarian): 38.2 µM | TGI (OVCAR-5 ovarian): 99 µM | GI50 (MCF7 breast): 17.9 µM | TGI (MCF7 breast): > 100 µM | GI50 (SF-295 CNS): 23.2 µM | TGI (SF-295 CNS): > 72.6 µM | GI50 (OVCAR-4 ovarian): 17.3 µM | TGI (OVCAR-4 ovarian): > 100 µM | GI50 (PC-3 prostate): > 67.7 µM | TGI (PC-3 prostate): > 100 µM | GI50 (SW-620 colon): 20.5 µM | TGI (SW-620 colon): > 49.5 µM | GI50 (SK-MEL-5 melanoma): 47.6 µM | TGI (SK-MEL-5 melanoma): > 100 µM | GI50 (K-562 leukemia): > 71.3 µM | TGI (K-562 leukemia): > 100 µM | GI50 (LOX IMVI melanoma): 19.4 µM | TGI (LOX IMVI melanoma): > 60.5 µM | GI50 (DU-145 prostate): 23 µM | TGI (DU-145 prostate): > 78.8 µM | GI50 (HCT-116 colon): 18 µM | TGI (HCT-116 colon): 49.1 µM

From PubChem BioAssay (NCI)
